This note sets out measurements from patent US8691813B2, “Indole and benzoxazine derivatives as modulators of metabotropic glutamate receptors” (Janssen Pharmaceuticals, Inc., priority 2008, dated 2014).

The target of series [1] is T1, human mGluR2 (Homo sapiens, UniProt Q14416).
T1 construct: expressed in transfected cells; host or cells: CHO cells (membrane preparation)
As to the kind of experiment: [35S]GTPγS binding assay (PAM assay) using membranes from CHO cells transfected with the human mGluR2 receptor. The following applies: in presence of glutamate at predetermined EC25 concentration, membranes containing human mGluR2, averages of duplicate values of 11-concentration response curves; for EC50: read-out: GTPγS -hR2 PAM pEC50 (converted). The class given is biochemical. As to the method: The [^35S]GTPγS binding assay is a functional membrane-based assay used to study G-protein coupled receptor (GPCR) function whereby incorporation of a non-hydrolysable form of GTP, [^35S]GTPγS (guanosine 5′-triphosphate, labelled with […] ^35S), is measured.
CHO-cells were cultured to pre-confluence and stimulated with 5 mM butyrate for 24 hs, prior to washing in PBS (phosphate-buffered saline), and then collection by scraping in homogenisation buffer (50 mM Tris-HCl buffer, pH 7.4, 4° C.). Cell lysates were homogenized briefly (15 s) using an ultra-turrax homogenizer. The homogenate was centrifuged at 23 500×g for 10 min. and the supernatant discarded. The pellet was resuspended in 5 mM Tris-HCl, pH 7.4 and centrifuged again (30 000×g, 20 min., 4° C.). The final pellet was resuspended in 50 mM HEPES, pH 7.4 and stored at −80° C. in appropriate aliquots before use. Protein concentration was determined by the Bradford method (Bio-Rad, USA) with bovine serum albumin as standard.
Measurement of mGluR2 positive allosteric modulatory activity of test compounds in membranes containing human mGluR2 was performed using frozen membranes that were thawed and briefly homogenised prior to pre-incubation in 96-well microplates (15 μg/assay well, 30 minutes, 30° C.) in assay buffer (50 mM HEPES pH 7.4, 100 mM NaCl, 3 mM MgCl2, 50 μM GDP, 10 μg/ml saponin,) with increasing concentrations of positive allosteric modulator (from 0.3 nM to 50 μM) and either a minimal pre-determined concentration of glutamate (PAM assay), or no added glutamate. […] After addition of [^35S]GTPγS (0.1 nM, f.c.) to achieve a total reaction volume of 200 μl, microplates were shaken briefly and further incubated to allow [^35S]GTPγS incorporation on activation (30 minutes, 30° C.). The reaction was stopped by rapid vacuum filtration over glass-fibre filter plates (Unifilter 96-well GF/B filter plates, Perkin-Elmer, Downers Grove, USA) microplate using a 96-well plate cell harvester (Filtermate, Perkin-Elmer, USA), and then by washing three times with 300 μl of ice-cold wash buffer (Na2PO4.2H2O 10 mM, NaH2PO4.H2O 10 mM, pH=7.4). Filters were then air-dried, and 40 μl of liquid scintillation cocktail (Microscint-O) was added to each well, and membrane-bound [^35S]GTPγS was measured in a 96-well scintillation plate reader (Top-Count, Perkin-Elmer, USA). Non-specific [^35S]GTPγS binding is determined in the presence of cold 10 μM GTP. Each curve was performed at least once using duplicate sample per data point and at 11 concentrations.
The concentration-response curves of representative compounds of the present invention in the presence of added EC25 of mGluR2 agonist glutamate to determine positive allosteric modulation (PAM), were generated using the Prism GraphPad software (Graph Pad Inc, San Diego, USA).

T1 sequence (Q14416 19-872): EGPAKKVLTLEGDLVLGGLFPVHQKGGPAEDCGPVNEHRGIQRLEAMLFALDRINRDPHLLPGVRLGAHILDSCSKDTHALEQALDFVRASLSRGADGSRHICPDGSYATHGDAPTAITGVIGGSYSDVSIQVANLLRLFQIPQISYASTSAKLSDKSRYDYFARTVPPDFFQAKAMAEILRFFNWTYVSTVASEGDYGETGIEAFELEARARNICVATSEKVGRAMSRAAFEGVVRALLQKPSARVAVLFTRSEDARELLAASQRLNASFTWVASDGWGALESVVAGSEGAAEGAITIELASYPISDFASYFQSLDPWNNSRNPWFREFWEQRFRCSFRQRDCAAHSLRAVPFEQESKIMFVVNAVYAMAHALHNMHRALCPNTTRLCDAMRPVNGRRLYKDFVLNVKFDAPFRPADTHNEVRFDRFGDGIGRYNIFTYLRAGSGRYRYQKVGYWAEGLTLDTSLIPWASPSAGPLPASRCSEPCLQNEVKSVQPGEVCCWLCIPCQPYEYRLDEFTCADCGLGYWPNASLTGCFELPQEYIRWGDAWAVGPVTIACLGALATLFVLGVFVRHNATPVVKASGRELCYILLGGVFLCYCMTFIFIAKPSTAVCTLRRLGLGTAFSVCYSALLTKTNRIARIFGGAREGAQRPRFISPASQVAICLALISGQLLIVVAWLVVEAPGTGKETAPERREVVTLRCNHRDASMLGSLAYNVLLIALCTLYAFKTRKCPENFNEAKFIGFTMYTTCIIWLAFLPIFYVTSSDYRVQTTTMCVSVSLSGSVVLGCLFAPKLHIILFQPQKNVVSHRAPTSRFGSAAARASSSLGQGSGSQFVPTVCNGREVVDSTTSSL

`FC(F)(F)Cc1cnc2c(Cl)c(-c3cc(Cl)c4[nH]ccc4c3)ccn12` [Compound 2, 8-Chloro-7-(7-chloro-M-indol-5-yl)-3-(2,2,2-trifluoroethyl)-imidazo[1,2-a]-pyridine] gave a melting point of 182.8 °C. Further, the “GTPγS -hR2 PAM pEC50” value in series [1] was determined as 7.07. Consider `FC(F)(F)Cc1cnc2c(Cl)c(-c3ccc4c(ccn4-c4ncccn4)c3)ccn12` [Compound 25, 8-Chloro-7-(1-pyrimidin-2-yl-1H-indol-5-yl)-3-(2,2,2-trifluoro-ethyl)-imidazo[1,2-a]pyridine], for which the EC50 in series [1] was 331 nM.

For `N#Cc1c(-c2ccc3c(ccn3-c3ccccc3)c2)ccn2c(CC(F)(F)F)cnc12` [Compound 28], the EC50 in series [1] is 219 nM. The same measure, in the same setting: the value for `N#Cc1c(-c2cc(Cl)c3c(ccn3C3CCOCC3)c2)ccn2c(CC(F)(F)F)cnc12` [Compound 1, 7-[7-Chloro-1-(tetrahydro-pyran-4-yl)-1H-indol-5-yl]-3-(2,2,2-trifluoroethyl) imidazo[1,2-a]pyridine-8-carbonitrile] was 380 nM; that for `N#Cc1c(-c2ccc3c(ccn3Cc3ccncc3)c2)ccn2c(CC(F)(F)F)cnc12` [Compound 27] was 117 nM. `C[C@]1(O)CC[C@H](n2ccc3cc(-c4ccn5c(CC(F)(F)F)cnc5c4Cl)ccc32)CC1` [Compound 4, trans-4-[5-[8-Chloro-3-(2,2,2-trifluoroethyl)-imidazo[1,2-a]pyridin-7-yl]-1H-indol-1-yl-]-1-methyl-cyclohexanol]: the melting point came out at 262.2 °C. Further, in series [1], the EC50 was 129 nM. `Cn1ccc2cc(-c3ccn4c(CC(F)(F)F)cnc4c3C#N)cc(Cl)c21` [Compound 10] had a melting point of 172 °C. On to `CC(C)(O)Cn1ccc2cc(-c3ccn4c(CC(F)(F)F)cnc4c3C#N)ccc21` [Compound 9], for which the EC50 in series [1] was 1070 nM. The molecule `C[C@]1(O)CC[C@H](n2ccc3cc(-c4ccn5c(CC(F)(F)F)cnc5c4C#N)ccc32)CC1` [Compound 21] came in with a melting point of 138.6 °C. Also, in series [1], the EC50 is 309 nM. The like results for `N#Cc1c(-c2ccc3c(ccn3-c3ccc(F)cc3)c2)ccn2c(CC(F)(F)F)cnc12` [Compound 29] were, in that order, 197.3 °C and 200 nM. For the molecule `N#Cc1c(-c2ccc3c(c2)OCCN3CC2CC2)ccn2c(CC(F)(F)F)cnc12` [Compound 12], in series [1], the EC50 is 117 nM. For the molecule `N#Cc1c(-c2ccc3c(ccn3CC3CC3)c2)ccn2c(CC(F)(F)F)cnc12` [Compound 13], the melting point amounted to 117.9 °C. Consider `FC(F)(F)Cc1cnc2c(Cl)c(-c3ccc4c(ccn4-c4ccccn4)c3)ccn12` [Compound 24], for which the EC50 in series [1] is 468 nM. `O[C@H]1CC[C@H](n2ccc3cc(-c4ccn5c(CC(F)(F)F)cnc5c4Cl)ccc32)CC1` [Compound 3] had a melting point of 131.6 °C. For the same molecule, the EC50 in series [1] is 166 nM. Molecule `FC(F)(F)Cc1cnc2c(Cl)c(-c3cc(Cl)c4c(ccn4CC4CC4)c3)ccn12` [Compound 18] returned a melting point of 151.3 °C. In addition, the “GTPγS -hR2 PAM pEC50” value in series [1] is given as 6.60. The molecule `N#Cc1c(-c2ccc3c(ccn3C3CCOCC3)c2)ccn2c(CC(F)(F)F)cnc12` [Compound 6] registered a melting point of 232.9 °C.

`N#Cc1c(-c2ccc3c(ccn3[C@H]3CC[C@H](O)CC3)c2)ccn2c(CC(F)(F)F)cnc12` [Compound 16]: the EC50 in series [1] is 245 nM. In the case of `C[C@]1(O)CC[C@@H](n2ccc3cc(-c4ccn5c(CC(F)(F)F)cnc5c4C#N)ccc32)CC1` [Compound 22], the melting point worked out at 171.1 °C. Besides, the EC50 in series [1] is 501 nM. `OC1CCC(N2CCOc3cc(-c4ccn5c(CC(F)(F)F)cnc5c4Cl)ccc32)CC1` (mixture of isomers) [Compound 5, 4-[7-[8-Chloro-3-(2,2,2-trifluoro-ethyl)-imidazo[1,2-a]pyridin-7-yl]-2,3-dihydro-4H-1,4-benzoxazin-4-yl]-cyclohexanol]: the EC50 in series [1] was 112 nM. Turning to `N#Cc1c(-c2ccc3c(c2)OCCN3[C@H]2CC[C@H](O)CC2)ccn2c(CC(F)(F)F)cnc12` [Compound 19], the EC50 in series [1] is 191 nM. The same measure, in the same setting: the value for `CN1CCOc2cc(-c3ccn4c(CC(F)(F)F)cnc4c3C#N)ccc21` [Compound 15] was 575 nM; that for `Cc1cc(Cn2ccc3cc(-c4ccn5c(CC(F)(F)F)cnc5c4C#N)ccc32)ccn1` [Compound 30] was 33.9 nM. `N#Cc1c(-c2cc(Cl)c3c(ccn3CC3CC3)c2)ccn2c(CC(F)(F)F)cnc12` [Compound 11] displayed a melting point of 175.3 °C. In addition, in series [1], the “GTPγS -hR2 PAM pEC50” value is 6.96. For the molecule `Cn1ccc2cc(-c3ccn4c(CC(F)(F)F)cnc4c3C#N)ccc21` [Compound 7], the “GTPγS -hR2 PAM pEC50” value in series [1] turned out to be 6.64. Turning to `CC(C)OCCn1ccc2cc(-c3ccn4c(CC(F)(F)F)cnc4c3C#N)ccc21` [Compound 14], the EC50 in series [1] was 813 nM.
